# Measured values from US8846758B2, “Methods of decreasing glycosylated hemoglobin in patients with dyslipidemia” (TWi Biotechnology, Inc., priority 2011, dated 2014).
# Tests used:
# [1] = test system: patients with type 2 diabetes mellitus inadequately controlled by previous antidiabetic therapy; test: Randomized, double-blind, placebo-controlled study of diacerin in uncontrolled type 2 diabetes mellitus: HbA1c; assay type: in vivo, human
# Description: To evaluate the efficacy and safety of diacerin for the treatment of type 2 diabetes mellitus (DM).
# To compare the efficacy of add-on diacerin with no add-on treatment (placebo) on HbA1c after 24-week double-blind treatment in Type 2 DM patients inadequately controlled by previous antidiabetic therapy.
# Male or female patients (BMI≦35 kg/m^2) with type 2 diabetes mellitus on a stable oral hypoglycemic monotherapy for at least 3 months prior to screening visit. The HbA1c measurements taken at screening visit must be between 7% and 12%. Patients enrolled in the study must be receiving one or more oral antihyperglycemic agents including sulfonylurea, biguanides, alpha-glucosidase inhibitors, thiazolidinediones, and nonsulfonylurea insulin secretagogues.
# (§1) This was a prospective, randomized, double-blind, and parallel comparison study comparing diacerin 50 mg versus placebo in patients with type 2 diabetes mellitus inadequately controlled by previous antidiabetic therapy. The starting dose of diacerin was 50 mg once daily every morning for 4 weeks and could be adjusted up to 50 mg twice daily (morning and evening) if patients have become accustomed to the medication. Patients were screened for eligibility four weeks (week—4) prior to entry at baseline (week 0). During this 4-week screening period, the participants continued their previous antidiabetic therapy, dietary habits, and other lifestyle habits. In order to be eligible for randomization following the 4-week screening period, patients must not have experienced hypoglycemia and must have had two fasting plasma glucose (FPG) measurements of between 135 to 250 mg/dL. At the end of the screening period, patients who met eligibility requirements were randomly assigned to receive diacerin 50 mg or placebo twice a day for 24 weeks observation. During treatment/observation period, the previous antidiabetic therapy including the class and/or dosage was not changed. Patients were asked to attend the center on eight occasions (screening, baseline, week 4, 8, 12, 16, 20 and 24) during the trial. The total study duration including the screening period for each patient was 28 weeks. There was a two weeks long follow-up period after completion of the treatment/observation. During this follow-up period, patients were followed for adverse events.
# The difference (diacerin vs. placebo) of HbA1c reduction between the two treatment groups was analyzed by analysis of covariance (ANCOVA) with baseline value as a covariate. The corresponding 95% confidence interval was calculated. Within-group changes were also analyzed, with paired t test used to evaluate differences from baseline in each treatment group.
# For the efficacy parameters, descriptive statistics were presented by visit. Statistical analysis was performed to assess the mean change from baseline. The area under the concentration-time curve (AUC) was used for evaluating the parameters measured by oral glucose tolerance test.
# A dyslipidemia sub-group was assembled, wherein subjects had the following baseline levels: a) plasma cholesterol levels greater than 200 mg/dl, or b) plasma triglyceride levels greater than 150 mg/dl, or c) plasma LDL levels greater than 100 mg/dl. The effects of administering […] to the patients in this dyslipidemia sub-group were analyzed by paired t-test compared with the placebo group.
# Subjects (n=76) were randomized in a 1:1 ratio to receive twice-daily diacerin 50 mg (n=38), or placebo (n=38) for 24 weeks. 26 subjects in the diacerin group finished the whole treatment period. Within these 26 subjects, there were 16 subjects with plasma cholesterol levels greater than 200 mg/dl, or plasma triglyceride levels greater than 150 mg/dl, or plasma LDL levels greater than 100 mg/dl at baseline respectively. Plasma cholesterol, triglyceride and LDL levels in the other 10 subjects were normal in the baseline. Thus, there were 16 subjects in the dyslipidemia subgroup.
# [2] = Same study: body weight and lipid profiles; assay type: in vivo, human; conditions: diacerin 50 mg twice daily, 24 weeks
# Experimental: as §1, with “Patients were asked to attend the center on eight occasions (screening, baseline, week 4, 8, 12, 16, 20 and 24) during the trial. The total study duration including the screening period for each patient was 28 weeks. There was a two weeks long follow-up period after completion of the treatment/observation. During this follow-up period, patients were followed for adverse events.” left out
# For the efficacy parameters, descriptive statistics were presented by visit. […] The area under the concentration-time curve (AUC) was used for evaluating the parameters measured by oral glucose tolerance test. […]
smiles,measurement,setting,value
"CC(=O)Oc1cccc2c1C(=O)c1c(OC(C)=O)cc(C(=O)O)cc1C2=O [diacerin, 4,5-bis(acetyloxy)-9,10-dioxo-2-anthracene carboxylic acid]","HbA1c mean change from baseline, week 24","[1]; All subjects (N=26) completing 24 weeks, diacerin 50 mg twice daily add-on",−0.63%
same,"HbA1c mean change from baseline, week 24","[1]; Dyslipidemia subgroup (N=16), diacerin 50 mg twice daily, 24 weeks",−0.82%
same,"HbA1c mean change from baseline, week 24","[1]; Hyper LDL-cholesterolemia subgroup (N=11), diacerin 50 mg twice daily, 24 weeks",−0.84%
same,"HbA1c mean change from baseline, week 24","[1]; Hypercholesterolemia subgroup (N=7), diacerin 50 mg twice daily, 24 weeks",−0.76%
same,"HbA1c mean change from baseline, week 24","[1]; Hypertriglyceridemia or hypercholesterolemia subgroup (N=14), diacerin 50 mg twice daily, 24 weeks",−0.89%
same,"HbA1c mean change from baseline, week 24","[1]; Hypertriglyceridemia subgroup (N=11), diacerin 50 mg twice daily, 24 weeks",−0.83%
same,"HbA1c mean change from baseline, week 24","[1]; Normal lipid profiles subgroup (N=10), diacerin 50 mg twice daily, 24 weeks",−0.30%
same,decrease of HbA1c levels compared with the placebo group,"[1]; after 24-week treatment, all subjects, p<0.05",about 0.63%
same,patients whose HbA1c levels decreased by more than or equal to 0.5%,"[1]; diacerin group, 13 of 26 patients, 24 weeks",50%
same,patients whose HbA1c levels decreased by more than or equal to 0.5%,"[1]; dyslipidemia subgroup, 10 of 16 patients, 24 weeks",62.5%
same,decrease of HbA1c levels compared with the baseline,"[1]; dyslipidemia subgroup, after 24-week treatment",about 0.82%
same,patients whose HbA1c levels decreased by more than or equal to 0.5%,"[1]; hypercholesterolemia subgroup, 4 of 7 patients, 24 weeks",57.1%
same,patients whose HbA1c levels decreased by more than or equal to 0.5%,"[1]; hypertriglyceridemia or hypercholesterolemia subgroup, 10 of 14 patients, 24 weeks",71.4%
same,patients whose HbA1c levels decreased by more than or equal to 0.5%,"[1]; hypertriglyceridemia subgroup, 7 of 11 patients, 24 weeks",63.6%
same,patients whose HbA1c levels decreased by more than or equal to 0.5%,"[1]; normal plasma lipid profiles, 4 of 10 patients, 24 weeks",40%
same,decrease of HbA1c levels compared with the baseline,"[1]; type 2 diabetic patients with normal lipid profile, after 24-week treatment",about 0.30%
same,changes in body weight compared with the placebo group,[2],no significant changes
same,changes in lipid profiles compared with the placebo group,[2],no significant changes
